Laboratory results as given in patent publication US20060069132A1, “Azolecarboxamide herbicides” (priority 2004, published 2006).
Like-named read-outs stand apart in the source and are kept apart here.

Tests used:
eastern black nightshade = assay: Test C pre-/postemergence herbicide test; type: in vivo, Solanum ptycanthum
Procedure, shortened: (§1)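 Seeds were planted and sprayed preemergence with test chemicals in a non-phytotoxic solvent mixture containing surfactant; postemergence treatments went onto plants 2 to 18 cm tall (1- to 4-leaf stage). After 12 to 14 days in a greenhouse, injury was rated visually against untreated controls on a 0–100 scale.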

cocklebur = assay: Test C pre-/postemergence herbicide test; type: in vivo, Xanthium strumarium
Procedure, shortened: as §1

large crabgrass = assay: Test A pre-/postemergence herbicide test; type: in vivo, Digitaria sanguinalis; details: for pest or weed control at 500 g/ha / pest or weed control at 2000 g/ha: Digitaria sanguinalis, 240 h
Procedure, shortened: (§2)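 Seeds sown in sandy loam received a preemergence directed soil spray of compound in non-phytotoxic solvent with surfactant; postemergence plants (2–10 cm, one- to two-leaf stage) were sprayed to runoff at the same time. After ~10 days in greenhouse, injury was rated visually versus untreated controls (0 = no effect, 100 = complete control).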

redroot pigweed = assay: Test A pre-/postemergence herbicide test; type: in vivo, Amaranthus retroflexus; details: for pest or weed control at 500 g/ha / pest or weed control at 2000 g/ha: Amaranthus retroflexus, 240 h
Procedure, shortened: as §2

bermudagrass = assay: Test C pre-/postemergence herbicide test; type: in vivo, Cynodon dactylon
Procedure, shortened: as §1

velvetleaf = assay: Test B pre-/postemergence herbicide test; type: in vivo, Abutilon theophrasti; details: for pest or weed control at 500 g/ha / pest or weed control at 125 g/ha: Abutilon theophrasti, 336 h
Procedure, shortened: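 Herbicidal effect was judged by eye on a 0–100 scale after plants stood 13 to 15 days in the greenhouse following pre- or postemergence treatment with surfactant-containing formulations.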

soybean = assay: Test C pre-/postemergence herbicide test; type: in vivo, Glycine max
Procedure, shortened: as §1

johnsongrass = assay: Test C pre-/postemergence herbicide test; type: in vivo, Sorghum halepense
Procedure, shortened: as §1

barnyardgrass = assay: Test A pre-/postemergence herbicide test; type: in vivo, Echinochloa crus-galli; details: for pest or weed control at 500 g/ha / pest or weed control at 2000 g/ha: Echinochloa crus-galli, 240 h
Procedure, shortened: as §2

[1] = Preemergence, 500 g ai/ha, scale 0 to 100, 0 no effect, 100 complete control
[2] = 62 g ai/ha, preemergence, scale 0 to 100
[3] = 125 g ai/ha, scale 0 (no effect) to 100 (complete control), visual, 12 to 14 days, preemergence
[4] = 250 g ai/ha, scale 0-100, preemergence
[5] = 500 g ai/ha, scale 0 to 100 (0 no effect, 100 complete control), visual, 12 to 14 days, preemergence
[6] = Postemergence, 500 g ai/ha, 0 to 100 scale, 0 no effect, 100 complete control
[7] = Postemergence, 2000 g ai/ha, 0 to 100 scale, 0 no effect, 100 complete control
[8] = Preemergence, 2000 g ai/ha, visual rating, 0 to 100 scale (0 no effect, 100 complete control)
[9] = preemergence, 500 g ai/ha, visual injury, 0 to 100 scale (0 no effect, 100 complete control)

## CCn1nc(C(C)(C)C)cc1C(=O)Nc1cccc2c1CN(C)C2=O [Compound 55, N-(2,3-dihydro-2-methyl-1-oxo-1H-isoindol-4-yl)-3-(1,1-dimethylethyl)-1-ethyl-1H-pyrazole-5-carboxamide]
Eastern black nightshade; 62 g ai/ha, preemergence
  Plant response rating (0 = no effect, 100 = complete control), Nightshade: 15
Eastern black nightshade; [1]
  Nightshade plant response rating: 95
Eastern black nightshade; pre-emergence, 125 g ai/ha, scale 0 (no effect) to 100 (complete control), visual, 12 to 14 days, read-out: Plant response rating, Nightshade
  pest or weed control at 125 g/ha: 60%
Eastern black nightshade; pre-emergence, 250 g ai/ha, scale 0 to 100 (0 no effect, 100 complete control), visual, 12 to 14 days, read-out: Plant response rating, Nightshade
  pest or weed control at 250 g/ha: 90%
cocklebur; 62 g ai/ha, preemergence
  Plant response rating (0 = no effect, 100 = complete control), Cocklebur: 0
cocklebur; Xanthium strumarium, pre-emergence, 312 h, 125 g ai/ha, scale 0 (no effect) to 100 (complete control), visual, 12 to 14 days, read-out: Plant response rating, Cocklebur
  pest or weed control at 125 g/ha: 0%
cocklebur; Xanthium strumarium, pre-emergence, 312 h, 250 g ai/ha, scale 0 to 100 (0 no effect, 100 complete control), visual, 12 to 14 days, read-out: Plant response rating, Cocklebur
  pest or weed control at 250 g/ha: 0%
cocklebur; Xanthium strumarium, pre-emergence, 312 h, Preemergence, 500 g ai/ha, scale 0 to 100, 0 no effect, 100 complete control, read-out: Cocklebur plant response rating
  pest or weed control at 500 g/ha: 0%
Large crabgrass; post-emergence, Postemergence, 500 g ai/ha, 0 to 100 scale, 0 no effect, 100 complete control, read-out: Plant response rating, Crabgrass, Large
  pest or weed control at 500 g/ha: 25%
Large crabgrass; post-emergence, Postemergence, 2000 g ai/ha, 0 to 100 scale, 0 no effect, 100 complete control, read-out: Plant response rating, Crabgrass, Large
  pest or weed control at 2000 g/ha: 100%
Large crabgrass; pre-emergence, Preemergence, 500 g ai/ha, visual rating, 0 to 100 scale (0 no effect, 100 complete control), read-out: Crabgrass, Large plant response rating
  pest or weed control at 500 g/ha: 75%
Large crabgrass; pre-emergence, Preemergence, 2000 g ai/ha, 0 to 100 scale, 0 no effect, 100 complete control, read-out: Crabgrass, Large plant response rating
  pest or weed control at 2000 g/ha: 100%
Redroot pigweed; post-emergence, Postemergence, 500 g ai/ha, 0 to 100 scale, 0 no effect, 100 complete control, read-out: Plant response rating, Pigweed
  pest or weed control at 500 g/ha: 90%
Redroot pigweed; post-emergence, Postemergence, 2000 g ai/ha, 0 to 100 scale, 0 no effect, 100 complete control, read-out: Plant response rating, Pigweed
  pest or weed control at 2000 g/ha: 100%
Redroot pigweed; pre-emergence, Preemergence, 500 g ai/ha, visual rating, 0 to 100 scale (0 no effect, 100 complete control), read-out: Pigweed plant response rating
  pest or weed control at 500 g/ha: 100%
Redroot pigweed; pre-emergence, Preemergence, 2000 g ai/ha, 0 to 100 scale, 0 no effect, 100 complete control, read-out: Pigweed plant response rating
  pest or weed control at 2000 g/ha: 100%
bermudagrass; 62 g ai/ha, preemergence
  Plant response rating (0 = no effect, 100 = complete control), Bermudagrass: 60
bermudagrass; Cynodon dactylon, pre-emergence, 312 h, 125 g ai/ha, scale 0 (no effect) to 100 (complete control), visual, 12 to 14 days, read-out: Plant response rating, Bermudagrass
  pest or weed control at 125 g/ha: 100%
bermudagrass; Cynodon dactylon, pre-emergence, 312 h, 250 g ai/ha, scale 0 to 100 (0 no effect, 100 complete control), visual, 12 to 14 days, read-out: Plant response rating, Bermudagrass
  pest or weed control at 250 g/ha: 100%
bermudagrass; Cynodon dactylon, pre-emergence, 312 h, Preemergence, 500 g ai/ha, scale 0 to 100, 0 no effect, 100 complete control, read-out: Bermudagrass plant response rating
  pest or weed control at 500 g/ha: 100%
velvetleaf; post-emergence, Postemergence, 500 g ai/ha, visual rating after 13 to 15 days, scale 0 (no effect) to 100 (complete control), read-out: Plant response rating, Velvetleaf
  pest or weed control at 500 g/ha: 40%
velvetleaf; post-emergence, postemergence, 125 g ai/ha, visual rating, scale 0 (no effect) to 100 (complete control), read-out: Velvetleaf plant response rating
  pest or weed control at 125 g/ha: 20%
velvetleaf; pre-emergence, Preemergence, 500 g ai/ha, scale 0 to 100, read-out: Velvetleaf plant response rating
  pest or weed control at 500 g/ha: 30%
velvetleaf; pre-emergence, preemergence, 125 g ai/ha, 0 to 100 scale, 0 is no effect, 100 is complete control, read-out: Plant response rating, Velvetleaf
  pest or weed control at 125 g/ha: 0%
soybean; 62 g ai/ha, preemergence
  Plant response rating (0 = no effect, 100 = complete control), Soybean: 0
soybean; Glycine max, pre-emergence, 125 g ai/ha, scale 0 (no effect) to 100 (complete control), visual, 12 to 14 days, read-out: Plant response rating, Soybean
  plant injury at 125 g/ha: 0%
soybean; Glycine max, pre-emergence, 250 g ai/ha, scale 0 to 100 (0 no effect, 100 complete control), visual, 12 to 14 days, read-out: Plant response rating, Soybean
  plant injury at 250 g/ha: 0%
soybean; [1]
  Soybean plant response rating: 20
johnsongrass; 62 g ai/ha, preemergence
  Plant response rating (0 = no effect, 100 = complete control), Johnsongrass: 0
johnsongrass; [1]
  Johnsongrass plant response rating: 100
johnsongrass; Sorghum halepense, pre-emergence, 125 g ai/ha, scale 0 (no effect) to 100 (complete control), visual, 12 to 14 days, read-out: Plant response rating, Johnsongrass
  pest or weed control at 125 g/ha: 75%
johnsongrass; Sorghum halepense, pre-emergence, 250 g ai/ha, scale 0 to 100 (0 no effect, 100 complete control), visual, 12 to 14 days, read-out: Plant response rating, Johnsongrass
  pest or weed control at 250 g/ha: 95%
barnyardgrass; post-emergence, Postemergence, 500 g ai/ha, 0 to 100 scale, 0 no effect, 100 complete control, read-out: Plant response rating, Barnyardgrass
  pest or weed control at 500 g/ha: 90%
barnyardgrass; post-emergence, Postemergence, 2000 g ai/ha, 0 to 100 scale, 0 no effect, 100 complete control, read-out: Plant response rating, Barnyardgrass
  pest or weed control at 2000 g/ha: 100%
barnyardgrass; pre-emergence, Preemergence, 500 g ai/ha, visual rating, 0 to 100 scale (0 no effect, 100 complete control), read-out: Barnyardgrass plant response rating
  pest or weed control at 500 g/ha: 80%
barnyardgrass; pre-emergence, Preemergence, 2000 g ai/ha, 0 to 100 scale, 0 no effect, 100 complete control, read-out: Barnyardgrass plant response rating
  pest or weed control at 2000 g/ha: 95%

## CCc1nn(C(C)(C)C)cc1C(=O)Nc1cc(C(=O)N(CC)CC)ccc1F [Compound 223]
Eastern black nightshade; [2]
  Plant response rating, Nightshade: 100
Eastern black nightshade; [3]
  Plant response rating, Nightshade: 100
Eastern black nightshade; [4]
  Plant response rating, Nightshade: 100
Eastern black nightshade; [5]
  Plant response rating, Nightshade: 100
cocklebur; [2]
  Plant response rating, Cocklebur: 0
cocklebur; [3]
  Plant response rating, Cocklebur: 0
cocklebur; [4]
  Plant response rating, Cocklebur: 0
cocklebur; [1]
  Cocklebur plant response rating: 0
Large crabgrass; [6]
  Crabgrass, Large plant response rating: 20
Large crabgrass; [7]
  Plant response rating, Crabgrass, Large: 25
Large crabgrass; [8]
  Crabgrass, Large plant response rating: 90
Large crabgrass; [9]
  Crabgrass, Large plant response rating: 90
Redroot pigweed; [6]
  Pigweed plant response rating: 50
Redroot pigweed; [7]
  Plant response rating, Pigweed: 55
Redroot pigweed; [8]
  Pigweed plant response rating: 90
Redroot pigweed; [9]
  Pigweed plant response rating: 95
bermudagrass; 62 g ai/ha, preemergence, scale 0 to 100, 0 no effect, 100 complete control
  Plant response rating, Bermudagrass: 80
bermudagrass; [3]
  Plant response rating, Bermudagrass: 80
bermudagrass; [4]
  Plant response rating, Bermudagrass: 100
bermudagrass; [1]
  Bermudagrass plant response rating: 100
velvetleaf; 125 g ai/ha, 0 = no effect, 100 = complete control, preemergence
  Velvetleaf plant response rating (0 to 100 scale): 30
velvetleaf; 500 g ai/ha, visual rating, 0 = no effect, 100 = complete control, preemergence
  Plant response rating, Velvetleaf: 100
velvetleaf; postemergence, 125 g ai/ha, visual rating, scale 0 (no effect) to 100 (complete control)
  Velvetleaf plant response rating: 20
velvetleaf; postemergence, 500 g ai/ha, visual rating, scale 0 (no effect) to 100 (complete control)
  Velvetleaf plant response rating: 20
soybean; [2]
  Plant response rating, Soybean: 0
soybean; [4]
  Plant response rating, Soybean: 80
soybean; [5]
  Plant response rating, Soybean: 90
johnsongrass; [2]
  Plant response rating, Johnsongrass: 80
johnsongrass; [3]
  Plant response rating, Johnsongrass: 80
barnyardgrass; [6]
  Barnyardgrass plant response rating: 10
barnyardgrass; [7]
  Plant response rating, Barnyardgrass: 55
barnyardgrass; [8]
  Barnyardgrass plant response rating: 80
barnyardgrass; [9]
  Barnyardgrass plant response rating: 55
